Values of other authors as cited in patent US8492370B2, “Compounds and methods for their production” (Bristol-Myers Squibb Company, priority 2006, dated 2013).

How the values were obtained:
[1] = tested on: SKBr3; settings: compared with geldanamycin and 17-AAG
[2] = target: Hsp90 (Homo sapiens, UniProt P07900)
[3] = tested on: Reverse transcriptase
[4] = target: terminal deoxynucleotidyl transferase (Homo sapiens, UniProt P04053)
terminal deoxynucleotidyl transferase, sequence (P04053 whole entry, species assumed): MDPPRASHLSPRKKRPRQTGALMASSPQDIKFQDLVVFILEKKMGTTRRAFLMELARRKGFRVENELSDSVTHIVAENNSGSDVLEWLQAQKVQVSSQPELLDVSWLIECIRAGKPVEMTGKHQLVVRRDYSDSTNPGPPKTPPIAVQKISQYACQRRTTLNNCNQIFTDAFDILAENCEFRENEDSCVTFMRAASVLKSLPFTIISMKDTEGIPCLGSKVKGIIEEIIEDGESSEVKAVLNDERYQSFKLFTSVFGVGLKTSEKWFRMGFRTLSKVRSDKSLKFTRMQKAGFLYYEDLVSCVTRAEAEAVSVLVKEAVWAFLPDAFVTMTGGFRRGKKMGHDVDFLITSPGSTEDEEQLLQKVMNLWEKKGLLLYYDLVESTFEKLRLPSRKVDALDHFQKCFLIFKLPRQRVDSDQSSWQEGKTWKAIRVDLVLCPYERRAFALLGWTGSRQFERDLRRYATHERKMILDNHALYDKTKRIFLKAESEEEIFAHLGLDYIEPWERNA

IC50 measurement using SKBr3 [1]	binding affinity to Hsp90, fold greater than 17-AAG ([2]; relative to 17-AAG) [fold]	binding affinity to Hsp90, fold greater than geldanamycin ([2]; relative to geldanamycin) [fold]	SMILES	Reverse transcriptase activity inhibition [3]	terminal deoxynucleotidyl transferase activity inhibition [4]
not reflected in an improvement	8	4	CO[C@H]1C[C@H](C)Cc2cc(O)cc(c2)NC(=O)/C=C/CC[C@H](OC)[C@@H](OC(N)=O)/C(C)=C/[C@H](C)[C@H]1O [KOSN1559]		
			CO[C@H]1[C@@H](OC)C[C@H](C)[C@@H](OC)C2=CC(=O)C=C(NC(=O)/C(C)=C/C=C\[C@H](C)[C@@H](OC(N)=O)/C(C)=C/[C@@H]1C)C2=O [macbecin]	not inhibited	not inhibited
